Columns and labels:
Type in all cases: in vivo
Plasmopara viticola = test: Downy Mildew of Grape (PLASVI), 96 hour protectant; conditions: grape vines (cultivar Carignane), sprayed at 100 ppm, inoculated after 96 hours (protectant)
Protocol: Compound Formulation: […] Final treatment volumes were obtained by adding nine volumes 0.05kOO aqueous Tween-20 or Triton X-100, depending upon the pathogen. Downy Mildew of Grape (Plasmogara viticola-[…]) (96 Hour Protectant): Vines (cultivar Carignane) were grown from seed in a soilless peat-based potting mixture (Metromix) until the seedlings were 10-20 cm tall. These plants were then sprayed to run off with the test compound at a rate of 100 ppm. After 96 hours the test plants were inoculated by spraying with an aqueous sporangia suspension of Plasmopara viticola. The plants were then transferred to the greenhouse until disease developed on the untreated control plants. The following table presents the activity of typical compounds of the present invention when evaluated in these experiments. The effectiveness of the test compounds in controlling disease was rated using the following scale: […]

Erysiphe graminis = test: Powdery Mildew of Wheat (ERYSGT); conditions: wheat (cultivar Monon), inoculated, sprayed at 25 ppm after 48 hours
Protocol: Compound Formulation: […] Final treatment volumes were obtained by adding nine volumes 0.05kOO aqueous Tween-20 or Triton X-100, depending upon the pathogen. Powdery Mildew of Wheat (Erysiphe graminis-[…]): Wheat (cultivar Monon) was grown in a soilless peat-based potting mixture (Metromix) until the seedlings were 1-2 leaf (BBCH 12). These plants were then inoculated with Erysiphe graminis by dusting spores from stock plants onto the test plants. After 48 hours the plants were sprayed to run off with the test compound at a rate of 25 ppm and then kept in the greenhouse until disease developed on the untreated control plants. The following table presents the activity of typical compounds of the present invention when evaluated in these experiments. The effectiveness of the test compounds in controlling disease was rated using the following scale: […]

Septoria tritici = test: Septoria leaf spot (SEPTTR); conditions: wheat (cultivar Monon), sprayed at 100 ppm, inoculated after 24 hours
Protocol: Compound Formulation: […] Final treatment volumes were obtained by adding nine volumes 0.05kOO aqueous Tween-20 or Triton X-100, depending upon the pathogen. Septoria leaf spot (Septoria tritici-[…]): Wheat (cultivar Monon) was grown from seed in a soilless peat-based potting mixture (Metromix) until the seedlings were 1-2 leaf (BECH 12). These plants were then sprayed to run off with the test compound at a rate of 100 ppm. After 24 hours the test plants were inoculated with an aqueous spore suspension of Septoria tritici. The plants were then transferred to the greenhouse until disease developed on the untreated control plants. The following table presents the activity of typical compounds of the present invention when evaluated in these experiments. The effectiveness of the test compounds in controlling disease was rated using the following scale: […]

SMILES	PLASVI control of plant disease (Plasmopara viticola)	ERYSGT control of plant disease (Erysiphe graminis)	SEPTTR control of plant disease (Septoria tritici)
CNC(=O)C(=NOC)c1ccccc1COc1cccc(Sc2ccc(SC)cc2)n1 [Compound 43]	++ (++ = 75-100 % control of plant disease)	− (− = 0-24% control of plant disease)	–
CCSCCOc1cccc(OCc2ccccc2C(=NOC)C(=O)NC)n1 [Compound 45]	++ (++ = 75-100 % control of plant disease)	+ (+ = 25-74% control of plant disease)	–
CNC(=O)C(=NOC)c1ccccc1COc1nc(OCCOC)c(Cl)cc1Cl [Compound 33]	++ (++ = 75-100 % control of plant disease)	+ (+ = 25-74% control of plant disease)	–
CCCOCCOc1cccc(OCc2ccccc2C(=NOC)C(=O)NC)n1 [Compound 31]	++ (++ = 75-100 % control of plant disease)	++ (++ = 75-100 % control of plant disease)	–
CNC(=O)C(=NOC)c1ccccc1COc1cccc(OCCOC)n1 [Compound 25]	++ (++ = 75-100 % control of plant disease)	++ (++ = 75-100 % control of plant disease)	–
CNC(=O)C(=NOC)c1ccccc1COc1cccc(Sc2cccs2)n1 [Compound 15]	++ (++ = 75-100 % control of plant disease)	++ (++ = 75-100 % control of plant disease)	–
CNC(=O)C(=NOC)c1ccccc1COc1cccc(OCCOCC2CO2)n1 (stereo not drawn) [Compound 74]	–	–	++ (++ = 75-100 % control of plant disease)
CNC(=O)C(=NOC)c1ccccc1COc1cccc(OCCCOCCCOC)n1 [Compound 71]	–	–	− (− = 0-24% control of plant disease)
CCCOCCOc1cccc(OCc2c(F)cccc2C(=NOC)C(=O)NC)n1 [Compound 59]	++ (++ = 75-100 % control of plant disease)	–	–
CNC(=O)C(=NOC)c1ccccc1COc1cccc(OCC2(C)COC2)n1 [Compound 7]	+ (+ = 25-74% control of plant disease)	++ (++ = 75-100 % control of plant disease)	–
CCCOCCOc1nc(OCc2ccccc2C(=NOC)C(=O)NC)c(Cl)cc1Cl [Compound 29]	++ (++ = 75-100 % control of plant disease)	+ (+ = 25-74% control of plant disease)	–
CNC(=O)C(=NOC)c1ccccc1COc1cccc(Oc2ccc(OC)cc2)n1 [Compound 38]	–	++ (++ = 75-100 % control of plant disease)	–
CNC(=O)C(=NOC)c1ccccc1COc1nc(OCc2ccco2)c(Cl)cc1Cl [Compound 4]	− (− = 0-24% control of plant disease)	− (− = 0-24% control of plant disease)	–
CNC(=O)C(=NOC)c1ccccc1COc1cccc(SCc2ccc(OC)cc2)n1 [Compound 57]	–	–	++ (++ = 75-100 % control of plant disease)
CCCCSCCOc1cccc(OCc2ccccc2C(=NOC)C(=O)NC)n1 [Compound 48]	+ (+ = 25-74% control of plant disease)	− (− = 0-24% control of plant disease)	–
CCCOC(C)COc1cccc(OCc2ccccc2C(=NOC)C(=O)NC)n1 (stereo not drawn) [Compound 32]	–	++ (++ = 75-100 % control of plant disease)	–
CCCCCOCCOc1cccc(OCc2c(Cl)cccc2C(=NOC)C(=O)NC)n1 [Compound 76]	–	–	++ (++ = 75-100 % control of plant disease)
CNC(=O)C(=NOC)c1ccccc1COc1cccc(OCc2ccco2)n1 [Compound 8]	++ (++ = 75-100 % control of plant disease)	− (− = 0-24% control of plant disease)	–
CNC(=O)C(=NOC)c1ccccc1COc1cccc(OCC2CCCCO2)n1 (stereo not drawn) [Compound 9]	++ (++ = 75-100 % control of plant disease)	+ (+ = 25-74% control of plant disease)	–
CNC(=O)C(=NOC)c1ccccc1COc1nc(OCC(C)OC)c(Cl)cc1Cl (stereo not drawn) [Compound 28]	++ (++ = 75-100 % control of plant disease)	++ (++ = 75-100 % control of plant disease)	–
CCCOCCOc1cccc(OCc2ccccc2C(=NOC)C(=O)NC)n1 [Compound 36]	++ (++ = 75-100 % control of plant disease)	+ (+ = 25-74% control of plant disease)	–

SMILES	PLASVI control of plant disease (Plasmopara viticola)	ERYSGT control of plant disease (Erysiphe graminis)	SEPTTR control of plant disease (Septoria tritici)
CNC(=O)C(=NOC)c1ccccc1COc1cccc(OCCOc2ccccc2)n1 [Compound 49]	++ (++ = 75-100 % control of plant disease)	++ (++ = 75-100 % control of plant disease)	–
CCCOC(C)COc1nc(OCc2ccccc2C(=NOC)C(=O)NC)c(Cl)cc1Cl (stereo not drawn) [Compound 26]	+ (+ = 25-74% control of plant disease)	++ (++ = 75-100 % control of plant disease)	–
CNC(=O)C(=NOC)c1ccccc1COc1cccc(Sc2ccccc2OC)n1 [Compound 42]	++ (++ = 75-100 % control of plant disease)	++ (++ = 75-100 % control of plant disease)	–
CNC(=O)C(=NOC)c1ccccc1COc1cccc(Sc2ccccc2OC(F)(F)F)n1 [Compound 41]	++ (++ = 75-100 % control of plant disease)	+ (+ = 25-74% control of plant disease)	–
CCOCCNc1nc(OCc2ccccc2C(=NOC)C(=O)NC)c(Cl)cc1Cl [Compound 23]	++ (++ = 75-100 % control of plant disease)	++ (++ = 75-100 % control of plant disease)	–
CCCCSCCOc1cccc(OCc2ccccc2C(=NOC)C(=O)NC)n1 [Compound 47]	++ (++ = 75-100 % control of plant disease)	++ (++ = 75-100 % control of plant disease)	–
CNC(=O)C(=NOC)c1ccccc1COc1cccc(OCCOCc2ccccc2)n1 [Compound 51]	++ (++ = 75-100 % control of plant disease)	++ (++ = 75-100 % control of plant disease)	–
CCOCCOc1cccc(OCc2c(Cl)cccc2C(=NOC)C(=O)NC)n1 [Compound 63]	++ (++ = 75-100 % control of plant disease)	–	–
CCOc1cccc(Oc2cccc(OCc3ccccc3C(=NOC)C(=O)NC)n2)c1 [Compound 67]	++ (++ = 75-100 % control of plant disease)	–	–
CNC(=O)C(=NOC)c1ccccc1COc1cccc(Sc2nnc(SC)s2)n1 [Compound 12]	− (− = 0-24% control of plant disease)	− (− = 0-24% control of plant disease)	–
CNC(=O)C(=NOC)c1ccccc1COc1cccc(OCC2COC(C(F)(F)F)(C(F)(F)F)O2)n1 (stereo not drawn) [Compound 11]	++ (++ = 75-100 % control of plant disease)	–	–
CNC(=O)C(=NOC)c1ccccc1COc1cccc(SCc2ccc(OC)cc2)n1 [Compound 34]	++ (++ = 75-100 % control of plant disease)	++ (++ = 75-100 % control of plant disease)	–
CNC(=O)C(=NOC)c1ccccc1COc1cccc(OCC2COC(C)(C(F)(F)F)O2)n1 (stereo not drawn) [Compound 6]	–	++ (++ = 75-100 % control of plant disease)	–
CCCCOCCOc1cccc(OCc2ccccc2C(=NOC)C(=O)NC)n1 [Compound 46]	++ (++ = 75-100 % control of plant disease)	+ (+ = 25-74% control of plant disease)	–
CNC(=O)C(=NOC)c1ccccc1COc1cccc(Sc2cccc(OC)c2)n1 [Compound 39]	–	++ (++ = 75-100 % control of plant disease)	–
CCSCCSc1cccc(OCc2ccccc2C(=NOC)C(=O)NC)n1 [Compound 50]	++ (++ = 75-100 % control of plant disease)	− (− = 0-24% control of plant disease)	–
CCCOc1ccc(Sc2cccc(OCc3ccccc3C(=NOC)C(=O)NC)n2)cc1 [Compound 87]	–	++ (++ = 75-100 % control of plant disease)	–
CNC(=O)C(=NOC)c1ccccc1COc1cccc(OCC2CCCO2)n1 (stereo not drawn) [Compound 10]	+ (+ = 25-74% control of plant disease)	++ (++ = 75-100 % control of plant disease)	–
CNC(=O)C(=NOC)c1ccccc1COc1nc(OCc2ccco2)c(Cl)cc1Cl [Compound 3]	++ (++ = 75-100 % control of plant disease)	+ (+ = 25-74% control of plant disease)	–
CNC(=O)C(=NOC)c1ccccc1COc1cccc(OCC(C)OC)n1 (stereo not drawn) [Compound 30]	++ (++ = 75-100 % control of plant disease)	++ (++ = 75-100 % control of plant disease)	–
